For this data set, the target named is T1, drug transporter (MRP2) (Rattus norvegicus, UniProt Q63120).
T1 construct: endogenous in cells; host or cells: primary hepatocytes in collagen gel sandwich culture on a PDMS membrane device, with a polystyrene device for comparison
The data set can be described thus: Measurement of MRP2 activity with CDCF (Bile Excretion Index) in collagen gel sandwiched hepatocytes. The format is in vitro ADME. Conditions: Day 4 of culture, 5 μM CDCF, 5 minutes. Here is the method: Using the collagen gel sandwiched hepatocytes that were cultured on the PDMS membrane culturing device prepared in Example 1 and forming bile canaliculi, the activity of a drug transporter (MRP2) was measured by incorporation of 5-(and-6)-carboxy-2′,7′-dichlorofluorescein (CDCF) as follows according to a Non-patent Document (Liu X et al., Am J Physiol, 1999, vol. 277, pp. 12-21). Further, hepatocytes cultured in a conventional polystyrene culturing device were used for comparison.
Ca/Mg(+) HBSS was prepared before use by mixing 50 mL of HBSS (Invitrogen, 14175-079), 500 μL of 14 g/L CaCl2 and 500 μL of 10 g/L MgCl2/6H2O together. In terms of the CDCF solution, a 5 μM CDCF solution was prepared before use by using 1 mM CDCF (in dimethyl sulfoxide: Molecular Probes, C-369) and Ca/Mg(+) HBSS, and the prepared solution was incubated in a water bath at 37° C. […]
Two hepatocyte cultures were prepared 4 days after the beginning of the culture (3 days after the deposition of the gel). […] A 100-μL aliquot was collected from each supernatant and subjected to measurement with a fluorescence microplate reader with excitation at 492 nm and fluorescence at 530 nm to quantify the amount of CDCF. […] The Bile Excretion Index (BEI) was calculated according to the following equation based on the fluorescent brightness per protein amount (Accumulation).

T1 sequence (Q63120 whole entry): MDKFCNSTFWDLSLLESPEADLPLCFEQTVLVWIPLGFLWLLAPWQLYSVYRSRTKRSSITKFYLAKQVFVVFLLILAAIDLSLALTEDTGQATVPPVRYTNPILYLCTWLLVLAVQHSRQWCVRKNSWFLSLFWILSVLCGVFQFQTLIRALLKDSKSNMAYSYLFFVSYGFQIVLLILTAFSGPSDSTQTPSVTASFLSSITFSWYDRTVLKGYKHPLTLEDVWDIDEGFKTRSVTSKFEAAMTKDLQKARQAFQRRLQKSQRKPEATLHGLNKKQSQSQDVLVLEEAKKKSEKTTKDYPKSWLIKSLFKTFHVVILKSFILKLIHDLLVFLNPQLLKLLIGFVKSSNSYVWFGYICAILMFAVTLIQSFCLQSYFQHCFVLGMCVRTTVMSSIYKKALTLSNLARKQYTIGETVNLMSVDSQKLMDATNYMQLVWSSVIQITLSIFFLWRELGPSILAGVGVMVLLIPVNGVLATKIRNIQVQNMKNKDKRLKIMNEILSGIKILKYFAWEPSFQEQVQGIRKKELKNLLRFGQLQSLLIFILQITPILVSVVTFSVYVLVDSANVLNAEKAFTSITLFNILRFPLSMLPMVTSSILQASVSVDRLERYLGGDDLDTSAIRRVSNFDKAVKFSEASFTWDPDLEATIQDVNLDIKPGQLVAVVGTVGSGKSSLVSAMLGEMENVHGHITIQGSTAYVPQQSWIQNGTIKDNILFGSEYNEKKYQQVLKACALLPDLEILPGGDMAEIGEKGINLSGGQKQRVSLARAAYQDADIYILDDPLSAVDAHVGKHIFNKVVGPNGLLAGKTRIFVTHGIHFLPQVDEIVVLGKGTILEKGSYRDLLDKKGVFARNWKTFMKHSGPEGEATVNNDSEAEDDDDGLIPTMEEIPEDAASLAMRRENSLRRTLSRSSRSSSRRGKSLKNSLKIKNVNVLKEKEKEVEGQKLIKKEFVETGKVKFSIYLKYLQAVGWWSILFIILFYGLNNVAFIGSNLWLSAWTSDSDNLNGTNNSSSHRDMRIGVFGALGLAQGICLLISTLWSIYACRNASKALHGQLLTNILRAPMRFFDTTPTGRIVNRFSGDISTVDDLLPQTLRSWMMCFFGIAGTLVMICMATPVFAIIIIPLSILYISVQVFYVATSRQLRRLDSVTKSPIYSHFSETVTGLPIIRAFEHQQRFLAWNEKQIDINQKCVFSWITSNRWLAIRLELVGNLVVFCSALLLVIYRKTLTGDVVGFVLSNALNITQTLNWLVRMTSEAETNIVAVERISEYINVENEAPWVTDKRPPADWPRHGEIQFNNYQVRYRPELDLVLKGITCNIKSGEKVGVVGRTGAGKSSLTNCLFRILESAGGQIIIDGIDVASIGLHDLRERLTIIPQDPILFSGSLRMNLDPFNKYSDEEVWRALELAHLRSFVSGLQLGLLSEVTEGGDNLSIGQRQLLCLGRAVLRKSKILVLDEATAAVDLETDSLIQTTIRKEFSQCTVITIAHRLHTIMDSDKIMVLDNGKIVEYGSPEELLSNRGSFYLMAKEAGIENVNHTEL

With “5-(and-6)-carboxy-2′,7′-dichlorofluorescein [CDCF]”, the “Bile Excretion Index (BEI)” value is reported as “about 20%” (collagen gel sandwich on conventional polystyrene (PS) substrate) and “about 40%” (collagen gel sandwich on gas-permeable PDMS membrane culturing device).

The record behind these values is patent US8906644B2, “Method for culture of hepatocytes” (The University of Tokyo, priority 2009, dated 2014).
